Data as given in patent US9688654B2, “Compounds inhibiting leucine-rich repeat kinase enzyme activity” (Merck Sharp & Dohme Corp., priority 2013, dated 2017).

Biological target: T1, LRRK2 (G2019S mutation, GST-LRRK2 (amino acids 970-2527)) (Homo sapiens, UniProt Q5S007, G2019S)
T1 construct: GST-LRRK2 (amino acids 970-2527); GST (N); purchased Life Technologies Corporation
Test: LRRK2 Km ATP LanthaScreen Assay
Type: biochemical
Settings: mean IC50
Protocol: Unless otherwise noted, all LRRK2 IC50 data presented in tables refers to the LRRK2 Km ATP LanthaScreen™ Assay that is described in the Biological Assay section.
The data presented for the 5 mM and Km ATP LanthaScreen™ Assay represents mean IC50 values based on several test results and may have reasonable. deviations depending on the specific conditions and reagents used. Reagents for the LRRK2 5 mM and Km ATP LanthaScreen™ Assay were purchased from Life Technologies Corporation.
• a) 400 nl of a 1:2.15 serial dilution of test compound (98 μM top assay concentration) is spotted via Labcyte Echo to certain wells in a 384 well black, untreated plate. Control wells contain 400 nl of either DMSO or 400 nl of a known inhibitor in DMSO. • b) 10 μl of a 2.5 nM LRRK2 (G2019S mutation, GST-LRRK2 (amino acids 970-2527)) enzyme solution in 1× assay buffer (50 mM Tris pH 8.5, 10 mM MgCl2, 0.01% Brij-35, 1.0 mM EGTA, 2 mM DTT, 0.05 mM NaVO4) is added to all wells. • c) A 30 minute room temperature incubation is followed by addition of 10 μl […]) After a 35 minute room temperature incubation, 20 μl of TR-FRET Dilution Buffer (Invitrogen PV3756B) containing 4 nM Tb-labeled anti-phospho LRRKtide antibody and 20 mM EDTA is added to all wells. • e) Plates are incubated at room temperature for 1 hour and read on an Envision™ multi-mode plate reader with LanthaScreen™ settings. Results are analysed using Assay Data Analyzer. […] Results are analysed using Assay Data Analyzer.

T1 sequence (Q5S007 970-2527 G2019S): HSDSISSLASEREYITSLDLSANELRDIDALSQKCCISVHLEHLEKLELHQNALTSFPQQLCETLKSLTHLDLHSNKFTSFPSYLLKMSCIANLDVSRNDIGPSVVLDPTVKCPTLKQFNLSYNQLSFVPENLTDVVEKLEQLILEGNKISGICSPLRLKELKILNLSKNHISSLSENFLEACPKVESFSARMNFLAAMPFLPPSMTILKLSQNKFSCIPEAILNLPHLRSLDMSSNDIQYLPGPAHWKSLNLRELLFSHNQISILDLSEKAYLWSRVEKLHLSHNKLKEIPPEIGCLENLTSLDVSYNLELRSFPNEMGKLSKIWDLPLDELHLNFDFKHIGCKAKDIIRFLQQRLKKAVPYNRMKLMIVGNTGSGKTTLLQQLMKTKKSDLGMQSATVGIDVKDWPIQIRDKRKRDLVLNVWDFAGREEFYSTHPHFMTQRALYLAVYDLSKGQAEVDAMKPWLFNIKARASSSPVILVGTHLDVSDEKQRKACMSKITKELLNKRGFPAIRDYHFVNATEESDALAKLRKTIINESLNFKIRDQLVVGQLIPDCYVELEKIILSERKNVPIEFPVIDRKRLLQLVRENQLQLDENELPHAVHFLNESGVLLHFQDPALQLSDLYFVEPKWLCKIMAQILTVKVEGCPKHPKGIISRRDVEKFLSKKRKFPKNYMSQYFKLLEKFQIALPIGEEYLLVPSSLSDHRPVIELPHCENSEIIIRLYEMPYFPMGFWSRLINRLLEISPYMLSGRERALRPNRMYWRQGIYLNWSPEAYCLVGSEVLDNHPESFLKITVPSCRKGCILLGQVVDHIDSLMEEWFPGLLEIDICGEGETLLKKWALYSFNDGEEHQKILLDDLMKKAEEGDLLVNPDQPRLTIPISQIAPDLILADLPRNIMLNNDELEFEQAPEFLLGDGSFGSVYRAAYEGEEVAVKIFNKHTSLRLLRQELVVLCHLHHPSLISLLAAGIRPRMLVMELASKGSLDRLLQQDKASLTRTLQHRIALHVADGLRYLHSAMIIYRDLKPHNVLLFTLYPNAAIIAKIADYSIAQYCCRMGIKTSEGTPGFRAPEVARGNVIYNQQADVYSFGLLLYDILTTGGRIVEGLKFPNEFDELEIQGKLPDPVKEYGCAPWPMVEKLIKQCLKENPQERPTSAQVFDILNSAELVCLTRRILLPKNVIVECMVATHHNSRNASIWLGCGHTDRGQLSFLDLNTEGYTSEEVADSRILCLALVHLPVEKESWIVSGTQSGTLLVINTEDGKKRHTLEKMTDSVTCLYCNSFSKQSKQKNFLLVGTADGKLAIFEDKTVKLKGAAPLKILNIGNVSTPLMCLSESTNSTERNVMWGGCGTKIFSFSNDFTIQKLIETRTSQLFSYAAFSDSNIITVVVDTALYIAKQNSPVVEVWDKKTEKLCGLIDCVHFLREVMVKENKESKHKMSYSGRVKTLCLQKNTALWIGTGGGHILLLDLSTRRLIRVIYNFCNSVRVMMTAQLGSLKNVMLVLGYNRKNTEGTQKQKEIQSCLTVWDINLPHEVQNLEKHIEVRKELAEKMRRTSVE

An IC50 of 40 nM was found for `c1cc(-c2n[nH]c3ccc(OC4CC4)cc23)cc(N2CCOCC2)n1` [Example 1] in this work.
An IC50 of 20 nM was found for `c1cc(-c2n[nH]c3ccc(OC4COC4)cc23)cc(N2CCOCC2)n1` [Example 2] in this work.
An IC50 of 1.2 nM was found for `Fc1cc2[nH]nc(-c3ccnc(N4CCOCC4)c3)c2cc1OC1CC1` [Example 3] in this work.
An IC50 of 23 nM was found for `CC1(Oc2ccc3[nH]nc(-c4ccnc(N5CC6CCC(C5)O6)c4)c3c2)CC1` [Example 4] in this work.
An IC50 of 67 nM was found for `CC1(Oc2ccc3[nH]nc(-c4ccnc(N5C6CCC5COC6)c4)c3c2)CC1` [Example 5] in this work.
An IC50 of 17 nM was found for `c1cc(-c2n[nH]c3ccc(OC4CC4)cc23)cc(N2CCOC3(CC3)C2)n1` [Example 6] in this work.
An IC50 of 30 nM was found for `FC1(F)CCN(c2cc(-c3n[nH]c4ccc(OC5CC5)cc34)ccn2)CC1` [Example 8] in this work.
An IC50 of 23 nM was found for `CO[C@H]1CN(c2cc(-c3n[nH]c4ccc(OC5CC5)cc34)ccn2)C[C@@H]1O` [Example 10] in this work.
An IC50 of 111 nM was found for `O=S1(=O)CC2CC(C1)N(c1cc(-c3n[nH]c4ccc(OC5CC5)cc34)ccn1)C2` (stereo not shown) [Example 11] in this work.
An IC50 of 10 nM was found for `c1cc(-c2n[nH]c3ccc(OC4CC4)cc23)cc(N2CCC(n3cncn3)CC2)n1` [Example 12] in this work.
An IC50 of 16 nM was found for `c1cnn(C2CCN(c3cc(-c4n[nH]c5ccc(OC6CC6)cc45)ccn3)CC2)c1` [Example 13] in this work.
An IC50 of 19 nM was found for `F[C@H]1CN(c2cc(-c3n[nH]c4ccc(OC5CC5)cc34)ccn2)C[C@@H]1F` [Example 14] in this work.
An IC50 of 44 nM was found for `[O-][S+]1CCCN(c2cc(-c3n[nH]c4ccc(OC5CC5)cc34)ccn2)CC1` (stereo not shown) [Example 15] in this work.
An IC50 of 71 nM was found for `O=S1(=O)CCCN(c2cc(-c3n[nH]c4ccc(OC5CC5)cc34)ccn2)CC1` [Example 16] in this work.
An IC50 of 51 nM was found for `CS(=O)(=O)N1CCCN(c2cc(-c3n[nH]c4ccc(OC5CC5)cc34)ccn2)CC1` [Example 17] in this work.
An IC50 of 54 nM was found for `c1cc(-c2n[nH]c3ccc(OC4CC4)cc23)cc(N2CCc3oc(C4CC4)nc3C2)n1` [Example 19] in this work.
